The results in this text go back to patent US5607967A, “Treatment of alzheimer's disease with 5-(tetradecyloxy)-2-furan carboxylic acid” (Merck & Co., Inc., priority 1994, dated 1997).

Like-named read-outs stand apart in the source and are kept apart here.

The target of series [1] is T1, human NUCI receptor (Homo sapiens, UniProt Q03181).
T1 sequence (Q03181 1-441): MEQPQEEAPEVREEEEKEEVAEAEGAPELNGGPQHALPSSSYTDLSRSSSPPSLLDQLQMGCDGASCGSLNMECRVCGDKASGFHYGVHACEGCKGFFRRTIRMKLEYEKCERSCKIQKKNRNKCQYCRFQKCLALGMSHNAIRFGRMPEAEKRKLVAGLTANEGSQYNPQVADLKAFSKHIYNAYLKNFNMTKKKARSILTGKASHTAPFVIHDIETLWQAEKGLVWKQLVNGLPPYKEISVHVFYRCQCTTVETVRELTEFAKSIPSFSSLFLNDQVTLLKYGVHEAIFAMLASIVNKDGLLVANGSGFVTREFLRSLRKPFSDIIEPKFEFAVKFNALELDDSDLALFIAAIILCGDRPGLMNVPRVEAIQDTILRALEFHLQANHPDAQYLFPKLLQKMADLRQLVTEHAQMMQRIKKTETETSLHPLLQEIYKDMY
The experiment in a line: Transcription assay, native NUC-I receptor co-transfected with MMTV-luciferase reporter. (In general: Reporter assays use an easily measured gene product as a stand-in for the process of interest.)
Experimental: The reporter gene was the plasmid pJA358 in which the expression of firefly luciferase is regulated by two tandem repeats of the glucocorticoid hormone response element (GRE) linked to the MMTV promoter (Boie et al., 1993).
(§1) Transient transfection of COS and CV1 cells was performed as described (Schmidt 1992). Cells were plated (1.5×10^5 in 1 mL) into 12 well dishes in phenol red-free medium supplemented with activated charcoal treated fetal calf serum. The next day 0.12 mL of DNA 10 μg/ml (5 μg receptor DNA and 5 μg reporter plasmid), as a calcium phosphate precipitate, was added to the cells. Ligands were added to the cells 30 minutes after transfection. The next day (18 hours), the cells were washed and fresh ligands added. Twenty-four hours later, cell extracts were prepared and assayed for luciferase enzyme activity using the luciferase assay system (Promega Madison, Wis.). Each transfection was performed in triplicate and the luciferase activity of each sample measured in duplicate using the AutoClinilumat (Berthold Nashua, N.H.).
The transfected cells were treated with TOFA at 2 μM, 10 μM, 20 μM, and 50 μM and oleic acid at 50 μM, and 300 μM.

For series [2], the system named is GR/NER chimeric receptor. The experiment in a line: Activation of GR/NER in COS-7 cells (luciferase). To be noted: 1440 min. The procedure:
The ligand dependent transcription assays were performed as described in Example 4. The transfected COS cells were treated with dopamine, TOFA, or with the combination of TOFA and dopamine at the indicated concentrations and tested for luciferase activity.

The target in series [3] is T2, GR/PPAR chimeric receptor (Mus musculus, UniProt P23204).
T2 construct: COS cells, MMTV-luciferase
T2 sequence (P23204 1-468): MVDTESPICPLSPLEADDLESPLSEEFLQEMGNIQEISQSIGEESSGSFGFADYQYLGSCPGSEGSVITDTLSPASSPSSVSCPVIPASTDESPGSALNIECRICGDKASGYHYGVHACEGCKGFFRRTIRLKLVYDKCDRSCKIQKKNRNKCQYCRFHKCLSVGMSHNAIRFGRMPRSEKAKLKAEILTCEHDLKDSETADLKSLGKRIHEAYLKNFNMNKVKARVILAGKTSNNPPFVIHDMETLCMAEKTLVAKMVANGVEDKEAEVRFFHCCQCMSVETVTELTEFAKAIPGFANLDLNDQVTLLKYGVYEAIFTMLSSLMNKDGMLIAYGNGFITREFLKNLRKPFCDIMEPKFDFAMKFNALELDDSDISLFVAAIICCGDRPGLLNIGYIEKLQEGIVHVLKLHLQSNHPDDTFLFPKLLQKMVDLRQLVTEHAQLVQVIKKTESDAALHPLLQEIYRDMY
T2 sequence (P06537 1-792 partner): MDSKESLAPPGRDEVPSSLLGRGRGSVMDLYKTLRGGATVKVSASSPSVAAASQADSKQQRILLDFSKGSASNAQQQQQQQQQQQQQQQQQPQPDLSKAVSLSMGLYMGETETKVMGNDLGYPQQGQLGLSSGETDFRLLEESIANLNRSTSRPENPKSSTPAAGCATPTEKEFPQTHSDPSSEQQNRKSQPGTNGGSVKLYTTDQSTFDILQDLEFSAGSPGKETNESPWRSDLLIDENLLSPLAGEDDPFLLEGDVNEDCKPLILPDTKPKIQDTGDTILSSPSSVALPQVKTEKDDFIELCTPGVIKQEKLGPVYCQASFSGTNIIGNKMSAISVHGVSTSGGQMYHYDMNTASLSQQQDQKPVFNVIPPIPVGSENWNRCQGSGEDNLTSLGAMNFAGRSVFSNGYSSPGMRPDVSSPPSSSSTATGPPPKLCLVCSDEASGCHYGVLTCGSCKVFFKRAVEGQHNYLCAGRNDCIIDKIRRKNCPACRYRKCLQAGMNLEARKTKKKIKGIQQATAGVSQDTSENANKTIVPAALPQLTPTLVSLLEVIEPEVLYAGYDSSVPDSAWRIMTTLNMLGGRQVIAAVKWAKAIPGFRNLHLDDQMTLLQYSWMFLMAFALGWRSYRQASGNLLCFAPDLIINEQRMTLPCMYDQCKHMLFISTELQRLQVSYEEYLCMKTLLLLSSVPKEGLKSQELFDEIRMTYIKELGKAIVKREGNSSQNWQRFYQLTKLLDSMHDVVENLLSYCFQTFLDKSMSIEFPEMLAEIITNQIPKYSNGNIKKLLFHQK
The experiment in a line: Ligand dependent transcription assay, GR/PPAR chimeric receptor with MMTV-luciferase reporter. The class given is cell-based. The procedure: Similar hybrid receptors GR/NER, GR/NUC and GR/PPAR, in identical expression plasmid backgrounds were prepared essentially as described for the construction of the GR/mPPAR and GR/NUC chimeric receptors in Schmidt et al., "Identification of a new member of the steroid hormone receptor superfamily that is activated by a peroxisome proliferator and fatty acids," Mol. Endocrinol., 6(10):1634-41, 1992, and in Boie et al., "Enantioselective activation of the peroxisome proliferator-activated receptor", J. Biol. Chem. 268(8):5530-4, 1993.
Briefly, the amino terminal portion of the mouse glucocorticoid receptor (mGR), that includes the DNA binding domain was fused to the putative ligand binding domains of the nuclear receptor NER, hNUC-I (Schmidt et al., 1992), mPPAR (Issenmann and Green, 1990) to form the respective chimeric receptors GR/NER, GR/NUC and GR/PPAR. The GR/NER chimeric receptor was constructed as described for the GR/NUC and GR/PPAR hybrid receptors (Schmidt et al., 1992; Boie et al). The cDNA sequences coding for amino acids Arg^155 and Glu^156 of the NER receptor were converted to the Xho I restriction site, that was later used for the ligation to the GR cDNA sequences that coded for the DNA binding domain. Thus, converting amino acid residues Arg^155 and Glu^156 of NER receptor to amino acid residues Ser^155 and His^156.
The ligand transcription assay mediated by GR/PPAR in COS cells was performed as described in Example 4. The cells were treated with TOFA and Cerulenin at 0.1, 1, 10 and 100 μM.

Series [4] has as its system reporter gene under the control of the promoter of SV40. As to the kind of experiment: Luciferase expression with reporter gene under control of the SV40 promoter. The class given is cell-based.
The target of series [5] is T2, GR/PPAR chimeric receptor. The experiment in a line: Ligand dependent transcription assay, GR/PPAR chimeric receptor with MMTV-luciferase reporter. The class given is cell-based. As to conditions: read-out: Fold of stimulation GR/PPAR.
The subject of series [6] is MMTV-luciferase reporter gene. As to the kind of experiment: Luciferase expression in cells transfected only with the MMTV-luciferase reporter gene. The class given is cell-based. As to conditions: no receptor transfected.
Experimental: as §1
The mark [7] stands for this setting: read-out: Fold of stimulation NUC-I.
The mark [8] stands for this setting: COS, read-out: Fold of stimulation GR/PPAR.

As for `CCCCCCCCCCCCCCOc1ccc(C(=O)O)o1` [TOFA, 5-(tetradecyloxy)-2-furan carboxylic acid], in series [1], the “Expression of MMTV-luciferase reporter after co-transfection of native NUCI” value is recorded as “did not stimulate expression”. Further, in series [1] (setting [7]), the fold induction at 2 µM is 0.83 ± 0.12, the fold induction at 10 µM stood at 0.94 ± 0.08 and the fold induction at 50 µM is 1.27 ± 0.06. Moreover, the “Fold of stimulation GR/NER” value in series [2] (TOFA 10 μM with dopamine 100 μM) was determined as 3.24 ± 0.06 fold. Moreover, the “Fold of stimulation GR/NER” value in series [2] (TOFA 100 μM with dopamine 100 μM) came to 2.85 ± 0.07 fold. For the same molecule, the “Fold of stimulation GR/NER” value in series [2] (TOFA 100 μM, no dopamine) was determined as 3.36 ± 0.04 fold. Moreover, the “Expression mediated by GR/PPAR” value in series [3] is listed as “stimulated expression”. For the same molecule, in series [3] (setting [8]), the fold induction at 0.1 µM was determined as 1.04 ± 0.14, the fold induction at 1 µM amounted to 2.38 ± 0.16, the fold induction at 10 µM is 4.43 ± 0.23 and the fold induction at 100 µM is 4.1 ± 0.52. For the same molecule, the fold induction at 10 µM in series [3] (read-out: Fold of stimulation GR/PPAR) was 4.08 ± 0.1. In series [4], the “Expression of luciferase, reporter under SV40 promoter” value is recorded as “did not stimulate the expression of luciferase”. In series [5], the fold induction at 2 µM amounted to 2.89 ± 0.13 and the fold induction at 20 µM came out at 5.75 ± 0.14. In addition, the “Expression of luciferase, MMTV-luciferase reporter gene only” value in series [6] is on record as “did not stimulate the expression of luciferase”.
